The target in the assay is Glutamate NMDA receptor; Grin1/Grin2c (Rattus norvegicus, UniProt Q00961+P35439). Briefly: Potentiation of rat recombinant GluN1/GluN2C expressed in Xenopus laevis oocytes assessed as increase in glutamate/glycine-induced current response by two-electrode voltage clamp technique relative to control. On the technique in general: In two-electrode clamp one electrode senses voltage and the other passes current.
Chain of Glutamate NMDA receptor; Grin1/Grin2c (Q00961 whole entry, other chains not shown): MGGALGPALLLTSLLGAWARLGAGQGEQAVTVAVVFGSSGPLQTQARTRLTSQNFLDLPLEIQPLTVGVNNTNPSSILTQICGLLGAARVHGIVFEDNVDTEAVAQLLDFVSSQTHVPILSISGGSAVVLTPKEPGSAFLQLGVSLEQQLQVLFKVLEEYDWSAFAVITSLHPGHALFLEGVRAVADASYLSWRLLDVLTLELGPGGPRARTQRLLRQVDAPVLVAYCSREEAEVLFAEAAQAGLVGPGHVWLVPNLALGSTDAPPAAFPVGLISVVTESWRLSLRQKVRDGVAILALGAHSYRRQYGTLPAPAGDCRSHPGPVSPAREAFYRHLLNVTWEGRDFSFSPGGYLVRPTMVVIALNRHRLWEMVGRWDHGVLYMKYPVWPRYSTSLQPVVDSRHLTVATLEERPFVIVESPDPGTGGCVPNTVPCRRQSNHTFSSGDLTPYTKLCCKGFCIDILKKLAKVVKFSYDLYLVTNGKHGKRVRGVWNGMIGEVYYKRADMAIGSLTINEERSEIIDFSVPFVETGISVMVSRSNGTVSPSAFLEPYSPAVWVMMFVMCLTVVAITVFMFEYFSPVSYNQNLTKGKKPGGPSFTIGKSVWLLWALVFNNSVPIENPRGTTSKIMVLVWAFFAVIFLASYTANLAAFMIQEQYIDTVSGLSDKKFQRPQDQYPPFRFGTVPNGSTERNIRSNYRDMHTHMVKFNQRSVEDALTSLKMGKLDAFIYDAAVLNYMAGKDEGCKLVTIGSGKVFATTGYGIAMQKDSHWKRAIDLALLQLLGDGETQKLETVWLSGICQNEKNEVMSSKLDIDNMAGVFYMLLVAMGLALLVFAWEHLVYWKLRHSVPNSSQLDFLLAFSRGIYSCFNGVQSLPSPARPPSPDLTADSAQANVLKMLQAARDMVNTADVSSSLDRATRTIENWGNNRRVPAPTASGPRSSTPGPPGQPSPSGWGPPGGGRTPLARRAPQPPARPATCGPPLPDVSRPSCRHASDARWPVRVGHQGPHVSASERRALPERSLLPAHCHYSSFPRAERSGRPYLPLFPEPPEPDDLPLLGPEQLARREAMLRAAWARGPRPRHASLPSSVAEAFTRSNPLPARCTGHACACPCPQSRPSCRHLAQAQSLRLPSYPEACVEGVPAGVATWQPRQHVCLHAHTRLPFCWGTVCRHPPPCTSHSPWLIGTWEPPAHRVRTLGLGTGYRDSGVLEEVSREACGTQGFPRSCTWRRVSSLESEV

In the case of `COC(=O)c1ccc(C2C(C(C)=O)=C(O)C(=O)N2CCc2c(C)[nH]c3ccccc23)cc1` (stereo unspecified), the EC50 stood at 16 µM.

In general, EC50 refers to the midpoint of the concentration-response curve.

The record behind these values is BindingDB's records for doi:10.1021/jm401695d (Emory University, 2014).
